Data taken from patent EP4707284A1, “HETEROCYCLIC COMPOUND AND USE THEREOF” (Otsuka Pharmaceutical Co., Ltd., priority 2023, dated 2024).

Assays:
in vitro = format: cell-based, human; conditions: human; 300 µmol/L, about 24 hours, PMA-differentiated HL-60 cells, LDH activity; no-treatment group 0%, cell lysis buffer-treated group 100%; read-out: cytotoxicity (%) Evaluation compound results
Protocol: An HL-60 cell line (human acute promyelocytic leukemia cells) was successively cultured in RPMI 1640 containing 20% fetal bovine serum (FBS) at 37°C in 95% atmosphere/5% CO2. Before evaluation, the cells were pre-cultured for about 72 hours in the presence of 10 nM phorbol 12-myristate 13-acetate (PMA) to induce macrophage-like differentiation.
Evaluation compounds were dissolved in DMSO to obtain 30 mmol/L solutions (or suspensions). Each DMSO solution was diluted 100-fold with RPMI 1640 containing 2% FBS (final concentration of the compound: 300 µmol/L) to obtain a treatment solution. The culture supernatant of the differentiated HL-60 cells was removed, and each treatment solution was added and cultured for about 24 hours, followed by cytotoxicity evaluation.
The activity of lactate dehydrogenase (LDH) was measured in the treatment solutions exposed to the cells for about 24 hours by using a commercial kit (Cytotoxicity LDH Assay Kit-WST, Dojindo Laboratories) and a plate reader (Tecan Infinite M1000). The obtained measurement values were used to calculate cytotoxicity (%) as comparison values for each evaluation compound-treated group, with the no-treatment group taken as 0% and the cell lysis buffer-treated group taken as 100%. The test was conducted in triplicate in three wells each, and the average values were used as adopted values.

[1] = format: physicochemical; conditions: 37°C, 60 minutes; for Concentration of brexpiprazole formed / Concentration of evaluation compound decreased: Tris-hydrochloric acid buffer (pH 7.5) 50 mmol/L, magnesium chloride 5 mmol/L, evaluation compound 1 µmol/L, average of duplicate; for stability in the buffer / conversion to brexpiprazole (in words): Tris-hydrochloric acid buffer (pH 7.5)
Procedure, shortened: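 Stability in buffer assessed as brexpiprazole formation: duplicate reactions at 37°C, started by adding compound to pre-warmed solution, quenched at 0 or 60 min with internal-standard-containing acetonitrile/isopropanol (4:1). Calibration curves covered 0.01, 0.1 and 1 µmol/L of compound and brexpiprazole.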

CCOP(=O)([O-])OC[N+]1(CCCCOc2ccc3ccc(=O)[nH]c3c2)CCN(c2cccc3sccc23)CC1 [EX 3, (4-(benzo[b]thiophen-4-yl)-1-(4-((2-oxo-1,2-dihydroquinolin-7-yl)oxy)butyl)piperazin-1-ium-1-yl)methyl ethyl phosphate]
cytotoxicity at 24 h, 300 µM (in vitro): -7% | Concentration of brexpiprazole formed [1]: 0 nM | Concentration of evaluation compound decreased [1]: 10 nM

O=c1ccc2ccc(OCCCC[N+]3(COP(=O)([O-])OCCO)CCN(c4cccc5sccc45)CC3)cc2[nH]1 [EX 9, (4-(benzo[b]thiophen-4-yl)-1-(4-((2-oxo-1,2-dihydroquinolin-7-yl)oxy)butyl)piperazin-1-ium-1-yl)methyl (2-hydroxyethyl)phosphate]
cytotoxicity at 24 h, 300 µM (in vitro): -2%

CCOC(=O)OCOP(=O)([O-])OC[N+]1(CCCCOc2ccc3ccc(=O)[nH]c3c2)CCN(c2cccc3sccc23)CC1 [EX 129]
Concentration of brexpiprazole formed [1]: 0 nM | Concentration of evaluation compound decreased [1]: 90 nM

CC(C)OC(=O)OCOP(=O)([O-])OC[N+]1(CCCCOc2ccc3ccc(=O)[nH]c3c2)CCN(c2cccc3sccc23)CC1 [EX 130]
Concentration of brexpiprazole formed [1]: 0 nM | Concentration of evaluation compound decreased [1]: -20 nM

CCOCCOC(=O)OCOP(=O)([O-])OC[N+]1(CCCCOc2ccc3ccc(=O)[nH]c3c2)CCN(c2cccc3sccc23)CC1 [EX 132]
Concentration of brexpiprazole formed [1]: 0 nM | Concentration of evaluation compound decreased [1]: 130 nM

CC(C)OCCOC(=O)OCOP(=O)([O-])OC[N+]1(CCCCOc2ccc3ccc(=O)[nH]c3c2)CCN(c2cccc3sccc23)CC1 [EX 133]
Concentration of brexpiprazole formed [1]: 0 nM | Concentration of evaluation compound decreased [1]: 140 nM

CCOCCOCCOC(=O)OCOP(=O)([O-])OC[N+]1(CCCCOc2ccc3ccc(=O)[nH]c3c2)CCN(c2cccc3sccc23)CC1 [EX 134]
Concentration of brexpiprazole formed [1]: 0 nM | Concentration of evaluation compound decreased [1]: 70 nM

CCCCOCCOCCOC(=O)OCOP(=O)([O-])OC[N+]1(CCCCOc2ccc3ccc(=O)[nH]c3c2)CCN(c2cccc3sccc23)CC1 [EX 135]
Concentration of brexpiprazole formed [1]: 0 nM | Concentration of evaluation compound decreased [1]: 70 nM

CCOCCOCCOCCOC(=O)OCOP(=O)([O-])OC[N+]1(CCCCOc2ccc3ccc(=O)[nH]c3c2)CCN(c2cccc3sccc23)CC1 [EX 136]
Concentration of brexpiprazole formed [1]: 0 nM | Concentration of evaluation compound decreased [1]: 0 nM

CC(C)OCCOCCOCCOC(=O)OCOP(=O)([O-])OC[N+]1(CCCCOc2ccc3ccc(=O)[nH]c3c2)CCN(c2cccc3sccc23)CC1 [EX 137]
Concentration of brexpiprazole formed [1]: 0 nM | Concentration of evaluation compound decreased [1]: 90 nM

CCCCOCCOCCOCCOC(=O)OCOP(=O)([O-])OC[N+]1(CCCCOc2ccc3ccc(=O)[nH]c3c2)CCN(c2cccc3sccc23)CC1 [EX 138]
Concentration of brexpiprazole formed [1]: 0 nM | Concentration of evaluation compound decreased [1]: 90 nM

COCCCOC(=O)OCOP(=O)([O-])OC[N+]1(CCCCOc2ccc3ccc(=O)[nH]c3c2)CCN(c2cccc3sccc23)CC1 [EX 139]
Concentration of brexpiprazole formed [1]: 0 nM | Concentration of evaluation compound decreased [1]: 120 nM

O=C(OCCCOC1CCCCO1)OCOP(=O)([O-])OC[N+]1(CCCCOc2ccc3ccc(=O)[nH]c3c2)CCN(c2cccc3sccc23)CC1 (stereo not drawn) [EX 140]
Concentration of brexpiprazole formed [1]: 0 nM | Concentration of evaluation compound decreased [1]: -20 nM

O=C(OCOP(=O)([O-])OC[N+]1(CCCCOc2ccc3ccc(=O)[nH]c3c2)CCN(c2cccc3sccc23)CC1)OC1CCOCC1 [EX 141]
Concentration of brexpiprazole formed [1]: 0 nM | Concentration of evaluation compound decreased [1]: 20 nM

O=C(OCOP(=O)([O-])OC[N+]1(CCCCOc2ccc3ccc(=O)[nH]c3c2)CCN(c2cccc3sccc23)CC1)OCC1CCOCC1 [EX 142]
Concentration of brexpiprazole formed [1]: 0 nM | Concentration of evaluation compound decreased [1]: -70 nM

CCOC(=O)CCOC(=O)OCOP(=O)([O-])OC[N+]1(CCCCOc2ccc3ccc(=O)[nH]c3c2)CCN(c2cccc3sccc23)CC1 [EX 143]
Concentration of brexpiprazole formed [1]: 0 nM | Concentration of evaluation compound decreased [1]: 50 nM

CCOC(=O)CCCCCOC(=O)OCOP(=O)([O-])OC[N+]1(CCCCOc2ccc3ccc(=O)[nH]c3c2)CCN(c2cccc3sccc23)CC1 [EX 144]
Concentration of brexpiprazole formed [1]: 0 nM | Concentration of evaluation compound decreased [1]: 120 nM

O=C(O)CCCCCOC(=O)OCOP(=O)([O-])OC[N+]1(CCCCOc2ccc3ccc(=O)[nH]c3c2)CCN(c2cccc3sccc23)CC1 [EX 145]
Concentration of brexpiprazole formed [1]: 0 nM | Concentration of evaluation compound decreased [1]: 30 nM

O=C(OCCCN1CCOCC1)OCOP(=O)([O-])OC[N+]1(CCCCOc2ccc3ccc(=O)[nH]c3c2)CCN(c2cccc3sccc23)CC1 [EX 146]
Concentration of brexpiprazole formed [1]: 0 nM | Concentration of evaluation compound decreased [1]: 110 nM

CCOC(=O)C1CCN(CCOP(=O)([O-])OC[N+]2(CCCCOc3ccc4ccc(=O)[nH]c4c3)CCN(c3cccc4sccc34)CC2)CC1 [EX 147]
Concentration of brexpiprazole formed [1]: 0 nM | Concentration of evaluation compound decreased [1]: 70 nM

CC(C)(C)C(=O)OP(=O)([O-])OC[N+]1(CCCCOc2ccc3ccc(=O)[nH]c3c2)CCN(c2cccc3sccc23)CC1 [EX 150]
Concentration of brexpiprazole formed [1]: 0 nM | Concentration of evaluation compound decreased [1]: 110 nM

CCNP(=O)([O-])OC[N+]1(CCCCOc2ccc3ccc(=O)[nH]c3c2)CCN(c2cccc3sccc23)CC1 [EX 151]
Concentration of brexpiprazole formed [1]: 0 nM | Concentration of evaluation compound decreased [1]: -10 nM

COCCNP(=O)([O-])OC[N+]1(CCCCOc2ccc3ccc(=O)[nH]c3c2)CCN(c2cccc3sccc23)CC1 [EX 152]
Concentration of brexpiprazole formed [1]: 0 nM | Concentration of evaluation compound decreased [1]: 10 nM

CCOC(=O)CNP(=O)([O-])OC[N+]1(CCCCOc2ccc3ccc(=O)[nH]c3c2)CCN(c2cccc3sccc23)CC1 [EX 154]
Concentration of brexpiprazole formed [1]: 0 nM | Concentration of evaluation compound decreased [1]: 20 nM

CC(C)(C)OC(=O)CNP(=O)([O-])OC[N+]1(CCCCOc2ccc3ccc(=O)[nH]c3c2)CCN(c2cccc3sccc23)CC1 [EX 155]
Concentration of brexpiprazole formed [1]: 0 nM | Concentration of evaluation compound decreased [1]: 160 nM

CCOC(=O)[C@H](C)NP(=O)([O-])OC[N+]1(CCCCOc2ccc3ccc(=O)[nH]c3c2)CCN(c2cccc3sccc23)CC1 [EX 156]
Concentration of brexpiprazole formed [1]: 0 nM | Concentration of evaluation compound decreased [1]: 170 nM

C[C@H](NP(=O)([O-])OC[N+]1(CCCCOc2ccc3ccc(=O)[nH]c3c2)CCN(c2cccc3sccc23)CC1)C(=O)OC(C)(C)C [EX 157]
Concentration of brexpiprazole formed [1]: 0 nM | Concentration of evaluation compound decreased [1]: 80 nM

C[C@H](NP(=O)([O-])OC[N+]1(CCCCOc2ccc3ccc(=O)[nH]c3c2)CCN(c2cccc3sccc23)CC1)C(N)=O [EX 158]
Concentration of brexpiprazole formed [1]: 0 nM | Concentration of evaluation compound decreased [1]: 70 nM

CC(C)OC(=O)[C@H](C)NP(=O)([O-])OC[N+]1(CCCCOc2ccc3ccc(=O)[nH]c3c2)CCN(c2cccc3sccc23)CC1 [EX 159]
Concentration of brexpiprazole formed [1]: 0 nM | Concentration of evaluation compound decreased [1]: 60 nM

O=C(OCOP(=O)([O-])OC[N+]1(CCCCOc2ccc3ccc(=O)[nH]c3c2)CCN(c2cccc3sccc23)CC1)N1CCOCC1 [EX 160]
Concentration of brexpiprazole formed [1]: 0 nM | Concentration of evaluation compound decreased [1]: -10 nM

CCC(=O)OC[N+]1(CCCCOc2ccc3ccc(=O)[nH]c3c2)CCN(c2cccc3sccc23)CC1.[I-] [REX 5, 4-(Benzo[b]thiophen-4-yl)-1-(4-((2-oxo-1,2-dihydroquinolin-7-yl)oxy)butyl)-1-((propionyloxy)methyl)piperazin-1-ium iodide, reference compound]
Concentration of brexpiprazole formed [1]: 260 nM | Concentration of evaluation compound decreased [1]: 200 nM | stability in the buffer / conversion to brexpiprazole (in words) [1]: clearly degraded to brexpiprazole

CCCCCC(=O)OC[N+]1(CCCCOc2ccc3ccc(=O)[nH]c3c2)CCN(c2cccc3sccc23)CC1.[I-] [REX 6, 4-(Benzo[b]thiophen-4-yl)-1-((hexanoyloxy)methyl)-1-(4-((2-oxo-1,2-dihydroquinolin-7-yl)oxy)butyl)piperazin-1-ium iodide, reference compound]
Concentration of brexpiprazole formed [1]: 210 nM | Concentration of evaluation compound decreased [1]: 220 nM | stability in the buffer / conversion to brexpiprazole (in words) [1]: clearly degraded to brexpiprazole

CCCCCCOC(=O)OC[N+]1(CCCCOc2ccc3ccc(=O)[nH]c3c2)CCN(c2cccc3sccc23)CC1.[I-] [REX 7, 4-(Benzo[b]thiophen-4-yl)-1-((((hexyloxy)carbonyl)oxy)methyl)-1-(4-((2-oxo-1,2-dihydroquinolin-7-yl)oxy)butyl)piperazin-1-ium iodide, reference compound]
Concentration of brexpiprazole formed [1]: 240 nM | Concentration of evaluation compound decreased [1]: 270 nM | stability in the buffer / conversion to brexpiprazole (in words) [1]: clearly degraded to brexpiprazole
